Data reported in US10399964B2, “Coumarin-linked taxanes for detection and circumvention of cellular efflux” (The University of Kansas, priority 2017, dated 2019).
Entries after “also recorded” stand apart in the source; their conditions may differ. One block for each compound: values may come before it.

Tests used:
[1] = biological target: P-gp in HeLa cells (Homo sapiens, UniProt P08183); test: P-gp efflux: cellular fluorescence with or without verapamil by flow cytometry, HeLa; details: probe 1 μM
[2] = biological target: P-gp in HCT-15 cells (Homo sapiens, UniProt P08183); test: P-gp efflux: cellular fluorescence with or without verapamil by flow cytometry, HCT-15; details: probe 1 μM
Experimental: Studies were conducted to investigate the efflux of Compound 1 in HCT-15 cells that express high levels of P-gp. Compound 1 was compared with rhodamine 123 (Rho123), a common P-gp substrate that accumulates in mitochondria.

[3] = test system: HeLa cells; test: Subcellular distribution and colocalization by confocal microscopy in living HeLa cells; type: cell-based; details: for subcellular distribution / colocalization: confocal microscopy, 1 h; for binding to microtubules in cells: HeLa cells transfected with mCherry-tubulin
Experimental: To examine the subcellular distribution of Compound 1, HeLa cells were imaged by confocal laser scanning microscopy (FIGS. 5A, 5B, and 5C). […] The distinct spectral profiles of PB and OG were used to further examine colocalization of Compound 1 and Flutax-2® (FIG. 5C).
The experiment was conducted by 1 hour incubation with HeLa cells, followed by a wash and then imaging using a 25% laser power with excitation at 405 nm and emission at 425-500 nm.
The studies compared the potency as an endoplasmic reticulum probe with commercial ER probe ER Tracker Blue-White DPX. […] Panels A and B used 1 nM of the compounds, Panels A1 and B1 used 10 nM of the compounds, Panels A2 and B2 used 100 nM of the compounds, and Panels A3 and B3 used 1 μM of the compounds.
As such, Compound 2 (PB-β-Ala-Taxol) was compared to iPr-Rhodol-β-Ala-Taxol with HeLa cells transfected with mCherry-tubulin.

[4] = test system: HeLa cervical carcinoma cells; test: Cytotoxicity, cellular viability by flow cytometry, HeLa; details: for IC50 / relative toxicity (cellular viability versus concentration): HeLa cells; for IC50: 48 h; for relative toxicity (cellular viability versus concentration): FIG. 9
Experimental: The cytotoxicity of the taxane PB fluorophores towards HeLa cervical carcinoma cells (FIGS. 4A and 4B) was evaluated. These cell lines were treated for 48 h, cellular viability was analyzed by flow cytometry, and paclitaxel was used as a positive control.
The IC50s were also determined.

[5] = biological target: cross-linked microtubules from bovine brain; test: Affinity for cross-linked microtubules by fluorescence enhancement; details: GAB buffer (pH 6.5); equilibrium binding curves; excitation 405 nm; read-out: apparent Kd
Experimental: PB was excited at 405 nm and emitted photons were collected at and above 450 nm.
Experiments were conducted to obtain the measured affinities of Compounds 1-3 for cross-linked microtubules from bovine brain using a fluorescence enhancement method (FIG. 2). […] PB was excited at 405 nm and emitted photons were collected at and above 450 nm.

[6] = test system: HeLa, Ramos, Raji, HL-60, and Jurkat cell lines; test: Uptake into different cell lines by flow cytometry; type: cell-based; details: 1 μM, 1 h, 200,000 cells/200 μL; verapamil 0, 25, 100 μM
Experimental: The uptake of Compound 1 (PB-Gly-Taxol, at 1 μM, 1 h, 200,000 cells/200 μL) by different cell lines was studied and quantified by using flow cytometry.

[7] = test system: HCT-15 cells; test: Cytotoxicity, cellular viability by flow cytometry, HCT-15; type: cell-based; details: for IC50: Homo sapiens, HCT-15, 48 h, 48 h

Chain of P-gp in HCT-15 cells (P08183 whole entry): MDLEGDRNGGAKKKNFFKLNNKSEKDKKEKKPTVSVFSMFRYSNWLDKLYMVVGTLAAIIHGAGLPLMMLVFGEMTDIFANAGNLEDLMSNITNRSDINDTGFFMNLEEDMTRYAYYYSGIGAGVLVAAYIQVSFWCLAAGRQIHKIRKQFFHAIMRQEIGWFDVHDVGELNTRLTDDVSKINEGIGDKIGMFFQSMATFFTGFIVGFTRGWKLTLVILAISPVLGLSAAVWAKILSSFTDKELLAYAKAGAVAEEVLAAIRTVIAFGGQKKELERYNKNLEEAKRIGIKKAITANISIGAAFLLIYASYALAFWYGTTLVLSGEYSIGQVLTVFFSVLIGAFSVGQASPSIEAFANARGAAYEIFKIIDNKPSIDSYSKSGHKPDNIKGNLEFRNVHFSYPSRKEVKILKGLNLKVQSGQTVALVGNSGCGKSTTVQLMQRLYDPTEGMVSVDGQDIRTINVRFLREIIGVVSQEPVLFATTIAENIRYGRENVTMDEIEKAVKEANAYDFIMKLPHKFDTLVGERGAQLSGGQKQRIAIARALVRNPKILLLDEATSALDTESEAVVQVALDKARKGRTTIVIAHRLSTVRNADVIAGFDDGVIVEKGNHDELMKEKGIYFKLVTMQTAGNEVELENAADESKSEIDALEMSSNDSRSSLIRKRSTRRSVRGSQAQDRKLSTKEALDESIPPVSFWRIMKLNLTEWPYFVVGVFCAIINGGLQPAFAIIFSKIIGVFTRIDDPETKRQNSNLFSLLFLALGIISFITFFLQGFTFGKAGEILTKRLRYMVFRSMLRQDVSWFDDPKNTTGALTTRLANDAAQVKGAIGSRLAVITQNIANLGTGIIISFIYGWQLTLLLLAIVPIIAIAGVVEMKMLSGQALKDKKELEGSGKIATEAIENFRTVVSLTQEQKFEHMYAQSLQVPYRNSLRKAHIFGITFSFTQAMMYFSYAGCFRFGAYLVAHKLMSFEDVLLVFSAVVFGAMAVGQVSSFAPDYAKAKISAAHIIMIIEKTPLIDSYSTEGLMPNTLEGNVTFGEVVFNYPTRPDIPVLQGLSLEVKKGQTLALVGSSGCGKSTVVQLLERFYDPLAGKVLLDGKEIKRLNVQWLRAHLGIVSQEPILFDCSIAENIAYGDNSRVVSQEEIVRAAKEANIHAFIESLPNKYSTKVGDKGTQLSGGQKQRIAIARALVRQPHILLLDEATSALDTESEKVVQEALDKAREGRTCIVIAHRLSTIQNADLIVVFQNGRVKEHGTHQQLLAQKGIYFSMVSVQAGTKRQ
Chain of P-gp in HeLa cells (P08183 whole entry): as above

Compound: rhodamine 123 [Rho123]
detection of low levels of P-gp activity [1]: undetectable
increase of cellular fluorescence in presence of verapamil ([2]; verapamil 25 μM): 3 fold
increase of cellular fluorescence in presence of verapamil ([2]; verapamil 100 μM): 3 fold

Compound: Flutax-2® [reference compound]
subcellular distribution / colocalization ([3]; living HeLa cells): punctate fluorescence that did not co-localize with Compound 1 on microtubules
IC50 ([4]; presence of verapamil (25 μM)): 1310 nM

Compound: PB-NHMe-Gly-Taxol [Compound 21]
potency as endoplasmic reticulum probe ([3]; living HeLa cells, 1 nM to 1 μM, versus ER Tracker Blue-White DPX): more potent as an endothelium reticulum probe compared to ER Tracker Blue-White DPX
subcellular distribution / colocalization ([3]; living HeLa cells): does not appear to colocalize with Flutax-2® on microtubules
subcellular distribution / colocalization ([3]; living HeLa cells, listed as PB-NHMe-Gly-Taxol): accumulate in the endoplasmic reticulum; also recorded: colocalizes with the red fluorescent endoplasmic reticulum probe HRA
relative toxicity (cellular viability versus concentration) [4]: less toxic than paclitaxel

Compound: CC(=O)O[C@H]1C(=O)[C@@]2(C)C([C@H](OC(=O)c3ccccc3)[C@]3(O)C[C@H](OC(O)[C@H](O)[C@@H](NC(=O)c4ccccc4)c4ccccc4)C(C)=C1C3(C)C)[C@]1(OC(C)=O)CO[C@@H]1C[C@@H]2OC(=O)CCNC(=O)c1ccc(-c2c3cc(F)c(=O)cc-3oc3cc(NC(C)C)c(F)cc23)c(C)c1 (stereo partly drawn) [iPr-Rhodol-β-Ala-Taxol, reference compound]
binding to microtubules in cells [3]: does not bind extensively to microtubules
subcellular distribution / colocalization ([3]; living HeLa cells): appears to accumulate predominantly in the endoplasmic reticulum
cytotoxicity (in words) [4]: without engendering substantial cytotoxicity

Compound: PB-NH2-Gly-Taxol [Compound 22]
subcellular distribution / colocalization ([3]; living HeLa cells): accumulate in the endoplasmic reticulum

Compound: CC(=O)OC1C(=O)C2(C)C(OC(=O)CCNC(=O)c3cc4cc(F)c(O)c(F)c4oc3=O)CC3OCC3(OC(C)=O)C2C(OC(=O)c2ccccc2)C2(O)CC(OC(=O)C(O)C(NC(=O)c3ccccc3)c3ccccc3)C(C)=C1C2(C)C (stereo not drawn) [Compound 2, PB-β-Ala-Taxol]
binding to microtubules in cells [3]: can bind to microtubules better than when paclitaxel is coupled to a different fluorophore
Kd [5]: 63 ± 8 nM

Kd [5]: 265 ± 54 nM
Compound: CC(=O)OC1C(=O)C2(C)C(OC(=O)CCCNC(=O)c3cc4cc(F)c(O)c(F)c4oc3=O)CC3OCC3(OC(C)=O)C2C(OC(=O)c2ccccc2)C2(O)CC(OC(=O)C(O)C(NC(=O)c3ccccc3)c3ccccc3)C(C)=C1C2(C)C (stereo not shown) [Compound 3, PB-GABA-Taxol]

Compound: CC(=O)OC1C(=O)C2(C)C(OC(=O)CNC(=O)c3cc4cc(F)c(O)c(F)c4oc3=O)CC3OCC3(OC(C)=O)C2C(OC(=O)c2ccccc2)C2(O)CC(OC(=O)C(O)C(NC(=O)c3ccccc3)c3ccccc3)C(C)=C1C2(C)C (stereo not shown) [Compound 1, PB-Gly-Taxol]
effect of verapamil on uptake [6]: the inclusion of verapamil increased the uptake
subcellular distribution / colocalization ([3]; living HeLa cells): bound microtubules with very high specificity
IC50 ([7]; with verapamil (25 μM)): 90 nM
IC50 ([7]; without verapamil): 3700 nM
enhancement of toxicity by verapamil ([7]; verapamil 25 μM versus none): 41 fold
Kd [5]: 34 ± 6 nM
relative toxicity (cellular viability versus concentration) [4]: less toxic than PB-NHMe-Gly-Taxol (Compound 21); also recorded: less toxic than paclitaxel
IC50 ([4]; Homo sapiens, HeLa, absence of verapamil): 120 nM
IC50 ([4]; Homo sapiens, HeLa, presence of verapamil (25 μM)): 60 nM
